Entries after “also recorded” stand apart in the source; their conditions may differ. Starred links: 1 amine or outer side, 2 acyl side, 3 side chain; linkers in the order of their positions; H or OH if unused. Positions of bridges follow the written chain, without caps; N, C: chain ends. Non-standard residues stand in square brackets, D forms with d. Residues, ends and D or L forms follow the SMILES beside them. Chains are numbered I, II in the order given. Actinocin(9to1) = Cc1c2oc3c(C)ccc(C(=O)[*:1])c3nc-2c(C(=O)[*:2])c(N)c1=O; NMeV = CN[C@H](C(=O)O)C(C)C; Sar = CNCC(=O)O
What was measured:
Thioredoxin reductase = test: Lipoate reduction (thioredoxin reductase activity) in intact A549 cells; type: cell-based, human; details: A549; actinomycin D 2.5 μg/mL or cycloheximide 10 μg/mL 1 hour prior, BSO 100 μM 24 hours prior
Experimental: Methods: Lipoate Reduction. Thioredoxin reductase activity was assessed by measuring the rate of lipoate reduction. In brief, A549 or PC3 cells (10,000 cells/well) were plated on 96-well plates and allowed to adhere overnight and grow two additional days until confluent. Cells were treated with MGd, zinc, or 5% mannitol for 2-4 hours, as indicated. Medium was removed, cells were washed with Hanks Balanced Salt Solution (HBSS), and a solution of 5 mM lipoic acid and 1 mM 5,5′-dithiobis(2-nitrobenzoic acid) in HBSS (100 μL/well) was added. Plates were incubated at ambient temperature in the dark. At chosen time intervals, plate absorbance was measured at 405-650 nm. Plate absorbances were normalized to wells containing neither exogenous zinc nor texaphyrin complex to allow plate-to-plate comparison. In some experiments, L-buthionine-[S,R]-sulfoximine (BSO, 100 μM) was added 24 hours prior to MGd or zinc treatment, to inhibit any contribution to lipoate reduction made by glutathione-dependent pathways (28). Actinomycin D (2.5 μg/mL) or cycloheximide (10 μg/mL), where present, was added 1 hour prior to texaphyrin or zinc treatment. Viability was checked on parallel plates using the tetrazolium dye 3-(4,5-dimethylthiazol-2-yl)-5-(3-carboxymethoxyphenyl)-2-(4-sulfophenyl)-2H-tetrazolium (MTS) following the manufacturers protocol (Promega Corp.).

HIF-1α = HIF-1α sandwich ELISA, Ramos; type: cell-based; details: four hours
Experimental: Methods: Total HIF-1α protein was detected by sandwich ELISA using the DuoSet IC™ HIF-1α ELISA kit obtained from R&D Systems (Minneapolis, Minn.). All incubations were carried out at ambient temperature. Briefly, 96-well plates were coated with HIF-1α capture antibody overnight prior to blocking with 5% BSA in wash buffer. Protein lysates (50 μg protein per well prepared according to the manufacturer's instructions) were added for 2 hours, whereupon plates were washed and a biotinylated detection antibody specific for HIF-1α was added. A streptavidin-horseradish peroxidase format was used for detection. The optical density at 450 minus […] was measured using a microplate reader (SpectraMax Plus, Molecular Devices, Palo Alto, Calif.). HIF-1α concentrations were calculated by linear regression using a standard curve prepared from HIF-1α standard supplied with the ELISA kit.

[1] = test system: metallothionein gene family members and ZnT1; test: Northern blot analysis, A549 cultures; type: cell-based, human; details: for Metallothionein transcript levels: A549, 24 hours, 50 μM MGd, Zn(OAc)2 100 μM, CdCl2 50 μM, FIG. 2B
Experimental: Methods: Northern Blot Analysis—Plateau phase cultures of A549 cells were prepared as described above, except that T-25 flasks were used, and the number of cells initially plated scaled accordingly. Cultures were treated with 50 μM MGd, 5 μM Gd(OAc)3 or 5% mannitol for 4 hours, whereupon cultures were washed twice with PBS and RNA harvested as above. Alternatively, 7-day plateau phase A549 or PC3 cultures were treated with 50 μM MGd, 50-100 μM Zn(OAc)2, 50 μM CdCl2 or 5% mannitol for 24 hours (A549) or 4 hours (PC3) prior to washing and RNA analysis. Exponential phase Ramos cultures were treated for 6 hours. Northern blots were conducted and analyzed. Radio labeled metallothionein probe, designed to bind to a 113-bp region of 3′-UTR sequences from multiple metallothionein gene family members, was generated using 5′-[…]-3′ (forward) and 5′-[…]-3′ (reverse) PCR primers and the NEBlot kit (New England Biolabs, Inc.). Radio labeled ZnT1 probe was generated in a similar fashion using 5′-[…]-3′ (forward) and 5′-[…]-3′ (reverse) primers.

Ramos cells [2] = test: Cell cycle analysis (BrdU / 7-AAD), Ramos; type: cell-based; details: for Cell cycle distribution / progression: Ramos; for BrdU incorporation into DNA: comparison treatments
Experimental: Methods: […] Thirty minutes prior to harvest, cultures were treated with 5-bromo-2′-deoxyuridine (BrdU) at a final concentration of 10 μM. Cells were isolated by centrifugation, washing once with 0.5% BSA in PBS, and the resulting cell pellets fixed using 0.5 mL Cytofix/Cytoperm reagent (BD Biosciences). […] Cells were stained using a fluorescein-conjugated anti-BrdU antibody (clone PRB1, E-Bioscience, San Diego, Calif.) and 7-AAD. Cell cycle occupancy was analyzed by flow cytometry using fluorescein signal as a measure of DNA synthesis and 7-AAD signal as a measure of DNA content. […] L. Shepherd & Assoc., San Fernando, Calif.).

A549 cells = test: Cell viability by propidium iodide exclusion, A549; details: A549, 24 hours; Zn(OAc)2 100 μM, CdCl2 50 μM, MGd 50 μM
Experimental: Methods: Cellular Viability. Cell viability was determined by using propidium iodide (PI) flow cytometric analysis. Cells from plateau phase cultures grown in T-25 flasks were harvested as described above, except that cells present in the growth medium and wash solution were isolated by centrifugation and included in the analysis. Cells were resuspended in 1 mL PBS, an aliquot of 3×10^5 cells transferred to a 4 mL tube, and the cells isolated by centrifugation. Cell pellets were resuspended in PBS supplemented with 2 μg/mL propidium iodide (Sigma), incubated for 5 minutes at ambient temperature, and subjected to flow cytometric analysis. Flow cytometry was performed on a FACSCalibur instrument and data were analyzed using the CellQuest Pro software package (BD Biosciences).

Ramos cells [3] = test: Intracellular free zinc (FluoZin-3 fluorescence), Ramos; type: cell-based; details: hydrogen peroxide treatment
Experimental: Methods: Intracellular Free Zinc. The concentration of intracellular free zinc was assessed using the ion-specific fluorescent probe, FluoZin-3-AM™ (FluoZin-3, Molecular Probes, Inc.). […] Following treatment, cells were isolated by centrifugation. Cell pellets were washed and re-suspended in a solution of 0.5% BSA in PBS.

Ramos cells [4] = test: Reactive oxygen species (DCFA to DCF), Ramos; type: cell-based; details: single agents
Experimental: Methods: Reactive oxygen species were measured in live cells as intracellular peroxides by monitoring the oxidation of 2′,7′-dichlorofluorescin-diacetate (DCFA) to 2′,7′-dichlorofluorescein (DCF) (Molecular Probes). Cells (1×10^6 per mL) were incubated in a solution of 1 μg per mL DCFA in 0.5% BSA in HBSS for 15 minutes at 37° C. Two mL additional 0.5% BSA in HBSS was added, cells were isolated by centrifugation, and the pellet re-suspended in a solution of 50 μg/mL 7-aminoactinomycin D (7-AAD) in 0.5% BSA in HBSS. Cell suspensions were incubated at ambient temperature for 2 to 3 minutes, and stored on ice until analysis. The fluorescent intensity in live (i.e., 7-AAD impermeable) cells was analyzed by flow cytometry.

CCCCS(=N)(=O)CCC(N)C(=O)O [BSO, L-buthionine-[S,R]-sulfoximine, reference compound]
Effect of pre-treatment on the inhibition of lipoate reduction by MGd and zinc (Thioredoxin reductase): increased the degree of inhibition

Cc1c2oc3c(C)ccc(C(=O)N[C@@H]4C(=O)N[C@H](C(C)C)C(=O)N5CCC[C@H]5C(=O)N(C)CC(=O)N(C)[C@@H](C(C)C)C(=O)O[C@@H]4C)c3nc-2c(C(=O)N[C@@H]2C(=O)N[C@H](C(C)C)C(=O)N3CCC[C@H]3C(=O)N(C)CC(=O)N(C)[C@@H](C(C)C)C(=O)O[C@@H]2C)c(N)c1=O [actinomycin D, reference compound] (I: T[dV]P[Sar][NMeV] / II: T[dV]P[Sar][NMeV]; ester I:1-I:C, II:1-II:C; linker I:N-II:N via Actinocin(9to1))
Effect of pre-treatment on the inhibition of lipoate reduction by MGd and zinc (Thioredoxin reductase): restored the inhibitory effect

CC(=O)[O-].CC(=O)[O-].[Co+2] [cobalt acetate]
Increase in total cellular HIF-1α levels (HIF-1α): increased

CC(=O)[O-].CC(=O)[O-].CC(=O)[O-].[Gd+3] [Gd(OAc)3, gadolinium acetate, reference compound]
Induction of metallothionein gene family members and ZnT1 (Northern blot) ([1]; A549 plateau phase, 4 hours, 50 μM MGd or 5 μM Gd(OAc)3): induced only in cultures treated with MGd

O=c1[nH]c(=O)n([C@H]2C[C@H](O)[C@@H](CO)O2)cc1F [5-fluoro-2′-deoxyuridine]
Cell cycle distribution / progression (Ramos cells [2]): accumulation of cells in G1/S | BrdU incorporation into DNA (Ramos cells [2]): permitted BrdU incorporation into DNA

C[C@@H]1C[C@@H]([C@H](O)CC2CC(=O)NC(=O)C2)C(=O)[C@@H](C)C1 [cycloheximide, reference compound]
Effect of pre-treatment on the inhibition of lipoate reduction by MGd and zinc (Thioredoxin reductase): restored the inhibitory effect

NC(=O)NO [hydroxyurea]
Cell cycle distribution / progression (Ramos cells [2]): allowed passage through G2M | BrdU incorporation into DNA (Ramos cells [2]): inhibited BrdU incorporation

[Cl][Cd][Cl] [CdCl2, reference compound]
Cellular viability (propidium iodide exclusion) (A549 cells): ca. 53% | Metallothionein transcript levels [1]: significant increase | Metallothionein transcript levels ([1]; listed as cadmium): raised; also recorded: high levels of metallothionein transcription

OO [hydrogen peroxide, reference compound]
FluoZin-3 fluorescence (Ramos cells [3]): increased | DCF signal (Ramos cells [4]): increased

— patent publication US20090197853A1, “METHODS AND COMPOSITIONS OF TREATING CANCER” (priority 2005, published 2009)
